Test results as given in publication PMC9728511, “Direct formation and site-selective elaboration of methionine sulfoximine in polypeptides” (Chemical Science, 2022).

Tested on: glutamine synthetase (GS)
Test: glutamine synthetase inhibition assay (glutamine synthetase activity assay kit, Abcam)
Assay type: biochemical
Settings: for Inhibition (%) of glutamine synthetase, Assay 1: Table S4, assay 1 of 3; for Inhibition (%) of glutamine synthetase, Assay 1 / Inhibition (%) of glutamine synthetase, Assay 2 / Inhibition (%) of glutamine synthetase, Assay 3: 1 mM inhibitor final concn, enzyme pre-incubated with inhibitor 37 °C 10 min, colorimetric ADP detection, A570 (average of 3 readings), background subtracted, vs enzyme control; for Inhibition (%) of glutamine synthetase, Assay 1 / Inhibition (%) of glutamine synthetase, Assay 2 / Inhibition (%) of glutamine synthetase, Assay 3 / Average inhibition (%) of glutamine synthetase: reaction 37 °C 60 min; for Inhibition (%) of glutamine synthetase, Assay 2: Table S5, assay 2 of 3; for Inhibition (%) of glutamine synthetase, Assay 3: Table S6, assay 3 of 3; for Average inhibition (%) of glutamine synthetase: Table S7, average of assay 1, 2 and 3 (mean of 3 independent experiments), 1 mM inhibitor, pre-incubation 37 °C 10 min, A570; for inhibitory activity on glutamine synthetase compared with MSO: screen at 1 mM inhibitor concentration (Fig. 4), comparison in words
Experimental: Assays were performed at 1 mM inhibitor concentration using a glutamine synthetase activity assay kit (Abcam).
Procedure f or the glutamine synthetase inhibition assay (Figure 4)
In this assay, glutamine synthetase catalyzesthe transformation from g lutamate and ATP t o g lutamine and ADP. ADP in the subsequent reaction, in presence of ADP converter, ADP d eveloper and ADP pr obe , forms a colorimetric product that is measured at absorbance 570 nm.
1. Stock solutions of glutamine synthetase, ATP, ADP converter, and ADP developer were prepared according to the protocol by Abcam: https://www.abcam.com/ps/products/284/ab284572/documents/Glutamine-Synthetase- Activity-Assay- […]
GS assay buffer, glutamate, and ADP probe were used as supplied.
2. Glutamine synthetase (2 µL ) was pre- incubated with methionine sulfoximine (MSO) (2 µL, 10 mM, 1 mM final concn) and methionine sulfoximine peptides 1b -8b (2 µL, 10 mM, 1 mM final concn) at 37 °C for 10 min, protected from light. For enzyme control, GS assay buffer (2 µL ) was used instead of MSO or peptides 1b -8b. For background control, GS assay buffer (4 µL) without enzyme was used.
3. Substrate mix was prepared by mixing GS assay buffer (96 µL ), glutamate (24 µL ), and ATP (24 µL ).
The resulting substrate mix (12 µL) was added to each sample.
4. ADP reactio n mix was prepared by mixing GS assay buffer (42 µL), ADP probe (6 µL), ADP converter (6 µL), and ADP developer (6 µL ). The resulting ADP reaction mix (4 µL ) was added to each sample. The total reaction volume for each sample is 20 µL.
5. After incubation of the reaction mixture at 37 °C for 60 mi n , the absorbance at 570 nm (A570) was measured on a Thermo Scientific NanoDrop 2000c spectrophotometer. For each sample, A570 was measure […]
6. The background control reading was subtracted from test sample readings and enzyme control readings.
7. Inhibition of glutamine synthetase was det er mi ned by comparing A570 (test sample) and A570 ( enzyme
Percentage inhibition = A570 (enzyme control)−A570 (test sample)A570 (enzyme control) × 100%
8. The assay was repeated for 3 times and the percentage inhibition values are me a n ± S D of 3 independent

Row | Compound | Inhibition (%) of glutamine synthetase, Assay 1 [%] | Inhibition (%) of glutamine synthetase, Assay 2 [%] | Inhibition (%) of glutamine synthetase, Assay 3 [%] | Average inhibition (%) of glutamine synthetase [%] | inhibitory activity on glutamine synthetase compared with MSO
1 | CS(=N)(=O)CC[C@H](N)C(=O)O (some centres unmarked) [MSO, methionine sulfoximine] | 18.1 | 18.8 | 19.2 | 18.7 | –
2 | Ac-FPQSGM-NH2 [5b] | 9.5 | 13.0 | 12.1 | 11.5 | –
3 | Ac-MGDFQ-NH2 [1b] | 16.8 | 17.2 | 19.0 | 17.7 | –
4 | Ac-MGKFQ-NH2 [2b] | 29.2 | 28.6 | 33.0 | 30.3 | higher than that observed for MSO
5 | Ac-MGRFTINP-NH2 [6b] | 28.6 | 26.2 | 24.1 | 26.3 | higher than that observed for MSO
6 | Ac-RPKPQQFFGLM-NH2 (substance P) [7b] | 1.7 | 3.1 | 3.7 | 2.8 | –
7 | Ac-SYSMEHFRWGKPV-NH2 (α-MSH) [8b] | 35.3 | 33.6 | 36.1 | 35.0 | higher than that observed for MSO
8 | Ac-VGMSWP-NH2 [4b] | 13.3 | 15.5 | 14.3 | 14.4 | –
9 | Ac-YGMLNP-NH2 [3b] | 0.9 | 1.0 | 0.8 | – | –
